# Measured values reported in paper PMC10687119, “Quaternary Ammonium Salts of Cationic Lipopeptides with Lysine Residues — Synthesis, Antimicrobial, Hemolytic and Cytotoxic Activities” (Probiotics and Antimicrobial Proteins, 2023).
# Where a SMILES comes first, the peptide text is derived from it. The star is where a group is joined. Stearoyl = CCCCCCCCCCCCCCCCCC(=O)*
# Test system: E. faecium ATCC 700221
# Type: cell-based, Enterococcus faecium
# Details: ATCC 700221, 18 h
# Protocol: (§1) The Acinetobacter baumannii ATCC BAA-1605, Enterococcus faecium ATCC 700221, Klebsiella aerogenes ATCC 13048, Klebsiella pneumoniae ATCC 700603, Pseudomonas aeruginosa ATCC 9027, Staphylococcus aureus ATCC 33591, Candida glabrata ATCC 15126 strains were acquired from the American Type Culture Collection (ATCC, Manassas, USA). All the strains were stored at −80 °C in Roti-Store cryo vials (Carl Roth GmbH, Germany) and before the tests were transferred into fresh Mueller–Hinton broth (MHB, Becton Dickinson, Poland) for bacteria or RPMI-1640 (Sigma-Aldrich, Germany) for fungi and incubated for 24 h at 37 °C. Then, the cultures were cultured on the Mueller–Hinton agar (BioMaxima, Poland) or Sabouraud dextrose agar (SDA, BioMaxima) plates, respectively, and incubated as just mentioned. For microbiological assays, a minimum of three to five well-isolated colonies of the same morphological type were carefully picked from the agar cultures. These colonies were transferred with sterile loop into fresh microbiological medium and incubated with shaking (100 rpm) at 37 °C until they reached logarithmic phase of growth. Cell densities for all assays were adjusted through spectrophotometric measurements (Multiskan GO Microplate Spectrophotometer, Thermo Fisher Scientific, Finland) at 600 and 530 nm for bacteria and fungi, respectively.
# (§2) The MICs were determined by broth microdilution method according to the Clinical and Laboratory Standard Institute guidelines. For this purpose, initial inoculums of bacteria (5 × 10^5 CFU/mL) in MHB and yeasts (2 × 10^3 CFU/mL) in RPMI-1640 with 2% D-glucose were exposed to the ranging concentration of lipopeptides (1–512 μg/mL) and incubated at 37 °C for 18 h and 24 h, respectively. The experiments were conducted on 96-well microtiter polystyrene plates (Kartell, Italy). The growth was assessed visually after incubation and the MIC was assumed as the lowest peptide concentration at which a noticeable growth of microorganisms was inhibited. Benzalkonium chloride (Sigma-Aldrich, Germany) was used as reference compound. All experiments were conducted in triplicate.
row,MIC [µg/mL],Compound
1,4,"CCCCCCCCCCCCCCCCCC(=O)N[C@@H](CCCCN)C(=O)N[C@@H](CCCCN)C(=O)N[C@@H](CCCCN)C(=O)N[C@@H](CCCCN)C(N)=O [Peptide 4S, C18-KKKK-NH2] (Stearoyl-KKKK-NH2)"

# Same assay, conditions: E. faecium ATCC 700221, 18 h, 37 °C
row,MIC [µg/mL],Compound
1,4,"benzalkonium chloride [BAC, reference compound]"

# Test system: S. aureus ATCC 33591
# Type: cell-based, Staphylococcus aureus
# Details: S. aureus ATCC 33591, 18 h, 37 °C
# Protocol: as §1, §2
row,MIC [µg/mL],Compound
1,> 512,"CCCCCCCCCCCCCCCCCC(=O)N[C@@H](CCCCN)C(N)=O [Peptide 1S, C18-K-NH2]"
2,4,"benzalkonium chloride [BAC, reference compound]"

# Test system: K. pneumoniae ATCC 700603
# Type: cell-based, Klebsiella pneumoniae
# Details: ATCC 700603, 18 h
# Protocol: as §1, §2
row,MIC [µg/mL],Compound
1,>512,"CCCCCCCCCCCCCCCCCC(=O)N[C@@H](CCCCN)C(N)=O [Peptide 1S, C18-K-NH2]"
2,>512,"CCCCCCCCCCCCCCCCCC(=O)N[C@@H](CCCC[N+](C)(C)C)C(N)=O [Peptide 1Sq, C18-K(Me3)^+-NH2]"
3,8,"CCCCCCCCCCCCCCCCCC(=O)N[C@@H](CCCCN)C(=O)N[C@@H](CCCCN)C(=O)N[C@@H](CCCCN)C(=O)N[C@@H](CCCCN)C(N)=O [Peptide 4S, C18-KKKK-NH2] (Stearoyl-KKKK-NH2)"

# Same assay, conditions: K. pneumoniae ATCC 700603, 18 h, 37 °C
row,MIC [µg/mL],Compound
1,16,"benzalkonium chloride [BAC, reference compound]"

# Test system: A. baumannii ATCC BAA 1605
# Type: cell-based, Acinetobacter baumannii
# Details: A. baumannii ATCC BAA 1605, 18 h, 37 °C
# Protocol: as §1, §2
row,MIC [µg/mL],Compound
1,16,"benzalkonium chloride [BAC, reference compound]"

# Same assay, conditions: ATCC BAA 1605, 18 h
row,MIC [µg/mL],Compound
1,>512,"CCCCCCCCCCCCCCCCCC(=O)N[C@@H](CCCCN)C(N)=O [Peptide 1S, C18-K-NH2]"
2,>512,"CCCCCCCCCCCCCCCCCC(=O)N[C@@H](CCCC[N+](C)(C)C)C(N)=O [Peptide 1Sq, C18-K(Me3)^+-NH2]"
3,16,"CCCCCCCCCCCCCCCCCC(=O)N[C@@H](CCCCN)C(=O)N[C@@H](CCCCN)C(=O)N[C@@H](CCCCN)C(=O)N[C@@H](CCCCN)C(N)=O [Peptide 4S, C18-KKKK-NH2] (Stearoyl-KKKK-NH2)"

# Test system: P. aeruginosa ATCC 9027
# Type: cell-based, Pseudomonas aeruginosa
# Details: ATCC 9027, 18 h
# Protocol: as §1, §2
row,MIC [µg/mL],Compound
1,>512,"CCCCCCCCCCCCCCCCCC(=O)N[C@@H](CCCCN)C(N)=O [Peptide 1S, C18-K-NH2]"
2,>512,"CCCCCCCCCCCCCCCCCC(=O)N[C@@H](CCCC[N+](C)(C)C)C(N)=O [Peptide 1Sq, C18-K(Me3)^+-NH2]"
3,8,"CCCCCCCCCCCCCCCCCC(=O)N[C@@H](CCCCN)C(=O)N[C@@H](CCCCN)C(=O)N[C@@H](CCCCN)C(=O)N[C@@H](CCCCN)C(N)=O [Peptide 4S, C18-KKKK-NH2] (Stearoyl-KKKK-NH2)"

# Same assay, conditions: P. aeruginosa ATCC 9027, 18 h, 37 °C
row,MIC [µg/mL],Compound
1,32,"benzalkonium chloride [BAC, reference compound]"

# Test system: K. aerogenes ATCC 13048
# Type: cell-based, Klebsiella aerogenes
# Details: ATCC 13048, 18 h
# Protocol: as §1, §2
row,MIC [µg/mL],Compound
1,>512,"CCCCCCCCCCCCCCCCCC(=O)N[C@@H](CCCCN)C(N)=O [Peptide 1S, C18-K-NH2]"
2,>512,"CCCCCCCCCCCCCCCCCC(=O)N[C@@H](CCCC[N+](C)(C)C)C(N)=O [Peptide 1Sq, C18-K(Me3)^+-NH2]"
3,4,"CCCCCCCCCCCCCCCCCC(=O)N[C@@H](CCCCN)C(=O)N[C@@H](CCCCN)C(=O)N[C@@H](CCCCN)C(=O)N[C@@H](CCCCN)C(N)=O [Peptide 4S, C18-KKKK-NH2] (Stearoyl-KKKK-NH2)"

# Same assay, conditions: K. aerogenes ATCC 13048, 18 h, 37 °C
row,MIC [µg/mL],Compound
1,16,"benzalkonium chloride [BAC, reference compound]"

# Test system: C. glabrata ATCC 15126
# Type: cell-based, Candida glabrata
# Details: ATCC 15126, 24 h
# Protocol: as §1, §2
row,MIC [µg/mL],Compound
1,4 to 8,"CCCCCCCCCCCCCCCCCC(=O)N[C@@H](CCCC[N+](C)(C)C)C(N)=O [Peptide 1Sq, C18-K(Me3)^+-NH2]"
2,16,"CCCCCCCCCCCCCCCCCC(=O)N[C@@H](CCCCN)C(=O)N[C@@H](CCCCN)C(=O)N[C@@H](CCCCN)C(=O)N[C@@H](CCCCN)C(N)=O [Peptide 4S, C18-KKKK-NH2] (Stearoyl-KKKK-NH2)"

# Same assay, conditions: C. glabrata ATCC 15126, 24 h, 37 °C
row,MIC [µg/mL],Compound
1,4,"CCCCCCCCCCCCCCCCCC(=O)N[C@@H](CCCC[N+](C)(C)C)C(N)=O [Peptide 1Sq, C18-K(Me3)^+-NH2]"
2,4,"benzalkonium chloride [BAC, reference compound]"

# Test system: human red blood cells (RBCs)
# Type: cell-based
# Details: red cells of human
# Protocol: The hemolysis assay was conducted using a procedure described previously. For this purpose, human red blood cells (RBCs) isolated from K2EDTA Single Donor Human Whole blood (Innovative Research, Inc, MI, USA) were rinsed with Phosphate-buffer saline (PBS, pH 7.4±0.05, composition - KCl 2.7 mM, NaCl 140 mM, phosphate 10mM; AppliChem GmbH, Germany) by centrifugation for 10 min at 800 × g. This process was repeated 3 times and the RBCs were resuspended in PBS. Then, the stock solution of RBCs was added to the serial dilution of lipopeptides on 96-well polystyrene plates to reach a final volume of 100 μL with a 4% concentration of erythrocytes (v/v) and a concentration range of 1-512 μg/mL of tested compounds. The control wells for 0% and 100% hemolysis consisted of RBCs suspended in PBS and 1% of Triton X-100 (Sigma-Aldrich, Germany), respectively. Benzalkonium chloride (Sigma-Aldrich, Germany) was used as reference compound. Subsequently, the plates were incubated for 60 min at 37 °C and then centrifuged at 800 × g for 10 min at 4 °C (Sorvall ST […] Centrifuge, Thermo Scientific). The supernatant was carefully […] to new microtiter plates. The release of hemoglobin was monitored absorbance measurements at 540 nm (MultiskanTM GO Microplate Spectrophotometer, Thermo Scientific). All experiments were conducted in triplicate. HC50 was calculated using an ic50.tk tool.
row,HC50 [µg/mL],Compound
1,>512,"CCCCCCCCCCCCCCCCCC(=O)N[C@@H](CCCCN)C(N)=O [Peptide 1S, C18-K-NH2]"
2,16.13 ± 9.88,"CCCCCCCCCCCCCCCCCC(=O)N[C@@H](CCCC[N+](C)(C)C)C(N)=O [Peptide 1Sq, C18-K(Me3)^+-NH2]"
3,48.44 ± 4.12,"CCCCCCCCCCCCCCCCCC(=O)N[C@@H](CCCCN)C(=O)N[C@@H](CCCCN)C(=O)N[C@@H](CCCCN)C(=O)N[C@@H](CCCCN)C(N)=O [Peptide 4S, C18-KKKK-NH2] (Stearoyl-KKKK-NH2)"

# Test system: human keratinocyte cell line (HaCaT)
# Type: cell-based
# Details: 24 h
# Protocol: The immortalized human keratinocyte cell line (HaCaT), obtained from CLS (Cell Line Service, Germany) was cultured in DMEM-high glucose (Dulbecco’s Modified Eagle Medium) supplemented with 10% fetal bovine serum, 2 mM L-glutamine, 100 U/mL penicillin and 100 μg/mL streptomycin (Sigma-Aldrich; Merck KGaA) at 37 °C in a humidified atmosphere with 5% CO2. Cells were trypsinized, and the medium was renewed 2–3 times per week. The cytotoxicity of compounds was assessed by colorimetric CellTilter 96® Aqueous One Solution Cell Proliferation Assay (Promega, USA), containing a tetrazolium compound according to the manufacturer’s instructions. In brief, 7 × 10^3 HaCaT cells per well were plated on 96-well plates and incubated per night to adhere to the cultured dishes. After that time, different concentrations of the tested compounds ranging from 512 to 1 μg/mL were applied to the wells. Every compound was medium-soluble at 37 °C; thus, the non-treated cells were negative control. Serial dilutions of the tested compounds were always prepared before use. Cells were incubated with drugs for 24 h, and then, 20 μL of the CellTiter 96®AqueousOne Solution Reagent was added to each well containing treated cells in 100 µl of culture medium. After 4 h of incubation at 37 °C, the absorbance at 490 nm was recorded using a microplate reader (Epoch, BioTek Instruments, USA). The quantity of formazan product as measured by the amount of 490 nm absorbance is directly proportional to the number of living cells in culture. Benzalkonium chloride (Sigma-Aldrich, Germany) was used as reference compound. At least three independent experiments with two replicates were conducted for each concentration of a compound, and the IC50 values were calculated using GraphPad Prism 8 software.
row,Compound,IC50 [µg/mL]
1,"CCCCCCCCCCCCCCCCCC(=O)N[C@@H](CCCCN)C(N)=O [Peptide 1S, C18-K-NH2]",8.34 ± 1.07
2,"CCCCCCCCCCCCCCCCCC(=O)N[C@@H](CCCC[N+](C)(C)C)C(N)=O [Peptide 1Sq, C18-K(Me3)^+-NH2]",14.13 ± 0.39
3,"CCCCCCCCCCCCCCCCCC(=O)N[C@@H](CCCCN)C(=O)N[C@@H](CCCCN)C(=O)N[C@@H](CCCCN)C(=O)N[C@@H](CCCCN)C(N)=O [Peptide 4S, C18-KKKK-NH2] (Stearoyl-KKKK-NH2)",155.34 ± 11.20

# Same assay, conditions: HaCaT, 24 h
row,Compound,IC50 [µg/mL]
1,"benzalkonium chloride [BAC, reference compound]",11.70 ± 0.76
